Test results published in patent US20200077656A1, “Use of an Acyclic Picolinamide Compound as a Fungicide for Control of Phytopathogenic Fungi in Row Crops” (priority 2017, published 2020).
Like-named read-outs stand apart in the source and are kept apart here.

How the values were obtained:
Format in all cases: in vivo
[1] = test system: Blumeria graminis f. sp. tritici; assay: Field assessment of Blumeria graminis f. sp. tritici (ERYSGT) on wheat
Experimental: Field Assessment of Blumeria graminis f sp. […] Disease severity was recorded as a percentage of visual diseased foliage on whole plot. […] infection was assessed three times at 12, 19 and 26 days after the last application. The disease infection was recorded following EPPO PP1/26 guideline prescriptions. Area under the disease progress curve (AUDPC) was calculated for each plot using the sets of recorded severity data. Relative AUDPC (% control based on AUDPC) was calculated as percent of the nontreated control.

Cercospora sojina = assay: Field assessment of Cercospora sojina (CERSO) in soybean; conditions: for Percent Visual Severity of CERCSO: soybean upper canopy, untreated 8.6; for CERCSO Percent of Untreated (AUDPC): leaftop severity
Magnaporthe grisea = conditions: two applications, EC + Trycol adjuvant, rice
Pyrenophora teres = assay: Field assessment of Pyrenophora teres (PYRNTE) on barley, Trial 1 (inoculated); conditions: EC + Trycol
Source text: Field Assessment of Pyrenophora teres ([…]) on Barley: A fungicidal treatment containing an EC formulation of compound I, tanked mixed with an adjuvant (Trycol, 50% w/w at 0.1% v/v), was sprayed on barley plants (spring barley; […] variety) twice, the first application at BBCH 37-43 growth stages of spring barley (0.01% infection on L1 at application) and the second application at growth stages 53-57 of spring barley (6.25% infection at application). […] The experimental plots were inoculated with net blotch of barley (1,000,000 spores/mL) at growth stage 39 of spring barley 1 day after the first […]. […] Disease severity was recorded as a percentage of visual diseased foliage on whole plot. Net blotch of barley infection was assessed three times at 7, 14 and 21 days after the last application. The disease infection was recorded following EPPO PP1/26 guideline prescriptions. Area under the disease progress curve (AUDPC) was calculated for each plot using the sets of recorded severity data. Relative AUDPC (% control based on AUDPC) was calculated as percent of the nontreated control.

Ramularia collo-cygni = assay: Field assessment of Ramularia collo-cygni (RAMUCC) on barley; conditions: 5% EC + Trycol adjuvant, winter barley
Experimental: Field Assessment of Ramularia […]) on Barley: A fungicidal treatment containing a 5% EC formulation of compound I, tanked mixed with an adjuvant (Trycol, 50% w/w at 0.1% v/v), was sprayed on barley plants (winter barley; Cassia variety) at BBCH 33 growth stage of winter barley (5% infection on L5 at application), under natural infection of Ramularia leaf spot of barley. […] Disease severity was recorded as a percentage of visual diseased foliage on whole plot. Ramularia leaf spot of barley infection was assessed three times at 7, 14 and 21 days after the last application. The disease infection was recorded following EPPO PP1/26 guideline prescriptions. Area under the disease progress curve (AUDPC) was calculated for each plot using the sets of recorded severity data. Relative AUDPC (% control based on AUDPC) was calculated as percent of the nontreated control.

[2] = 50 g/ha, Agnique BP420 200 mL/ha
[3] = 75 g/ha, Agnique BP420 300 mL/ha
[4] = 100 g/ha, Adsee C80W 80% 250 g/ha
[5] = 100 g/ha, Agnique BP420 400 mL/ha
[6] = 150 g/ha, Agnique BP420 600 mL/ha

**Q.** Which results are given for COc1ccnc(C(=O)N[C@@H](C)C(=O)O[C@@H](C)C(c2ccc(F)cc2)c2ccc(F)cc2)c1OC(C)=O [Compound I, (S)-1,1-bis(4-fluorophenyl)propan-2-yl (3-acetoxy-4-methoxypicolinoyl)-L-alaninate]?
**A.** % Control (AUDPC) of ERYSGT ([1]; 5 g ai/ha, EC + Agnique BP-420): C (26-50); % Control (AUDPC) of ERYSGT ([1]; 5 g ai/ha, SC + Agnique BP-420): C (26-50); % Control (AUDPC) of ERYSGT ([1]; 20 g ai/ha, EC + Agnique BP-420): A (76-100); % Control (AUDPC) of ERYSGT ([1]; 20 g ai/ha, SC + Agnique BP-420): B (51-75); % Control (AUDPC) of ERYSGT ([1]; 40 g ai/ha, EC + Agnique BP-420): A (76-100); % Control (AUDPC) of ERYSGT ([1]; 40 g ai/ha, SC + Agnique BP-420): A (76-100); % Control (AUDPC) of ERYSGT ([1]; 60 g ai/ha, EC + Agnique BP-420): A (76-100); % Control (AUDPC) of ERYSGT ([1]; 60 g ai/ha, SC + Agnique BP-420): A (76-100); % Control (AUDPC) of ERYSGT ([1]; 80 g ai/ha, EC + Agnique BP-420): A (76-100); % Control (AUDPC) of ERYSGT ([1]; 80 g ai/ha, SC + Agnique BP-420): A (76-100); % Control (AUDPC) of ERYSGT ([1]; 120 g ai/ha, EC + Agnique BP-420): A (76-100); % Control (AUDPC) of ERYSGT ([1]; 120 g ai/ha, SC + Agnique BP-420): A (76-100); Percent Visual Severity of CERCSO (Cercospora sojina; [2]): 5.6%; Percent Visual Severity of CERCSO (Cercospora sojina; 50 g/ha, MSO 100 g/ha): 6.5%; Percent Visual Severity of CERCSO (Cercospora sojina; [3]): 4.2%; Percent Visual Severity of CERCSO (Cercospora sojina; 75 g/ha, MSO 150 g/ha): 3.6%; Percent Visual Severity of CERCSO (Cercospora sojina; [4]): 4.5%; Percent Visual Severity of CERCSO (Cercospora sojina; [5]): 4.5%; Percent Visual Severity of CERCSO (Cercospora sojina; 100 g/ha, MSO 200 g/ha): 4.3%; Percent Visual Severity of CERCSO (Cercospora sojina; [6]): 3.3%; Percent Visual Severity of CERCSO (Cercospora sojina; 150 g/ha, MSO 300 g/ha): 3.3%; CERCSO Percent of Untreated (AUDPC) (Cercospora sojina; [2]): 62.0%; CERCSO Percent of Untreated (AUDPC) (Cercospora sojina; 50 g/ha, MSO 100 g/ha): 73.8%; CERCSO Percent of Untreated (AUDPC) (Cercospora sojina; [3]): 63.1%; CERCSO Percent of Untreated (AUDPC) (Cercospora sojina; 75 g/ha, MSO 150 g/ha): 62.9%; CERCSO Percent of Untreated (AUDPC) (Cercospora sojina; [4]): 58.3%; CERCSO Percent of Untreated (AUDPC) (Cercospora sojina; [5]): 61.6%; CERCSO Percent of Untreated (AUDPC) (Cercospora sojina; 100 g/ha, MSO 200 g/ha): 52.4%; CERCSO Percent of Untreated (AUDPC) (Cercospora sojina; [6]): 48.4%; CERCSO Percent of Untreated (AUDPC) (Cercospora sojina; 150 g/ha, MSO 300 g/ha): 53.5%; Disease control of PYRIOR, percent control based on AUDPC (Magnaporthe grisea; 50 g ai/ha): C (26-50); Disease control of PYRIOR, percent control based on AUDPC (Magnaporthe grisea; 100 g ai/ha): C (26-50); Disease control of PYRIOR, percent control based on AUDPC (Magnaporthe grisea; 150 g ai/ha): B (51-75); Disease control of PYRIOR, percent control based on AUDPC (Magnaporthe grisea; 200 g ai/ha): B (51-75); % Control (AUDPC) of PYRNTE, Trial 1 (Pyrenophora teres; 75 g ai/ha): B (51-75); % Control (AUDPC) of PYRNTE, Trial 1 (Pyrenophora teres; 100 g ai/ha): B (51-75); % Control (AUDPC) of PYRNTE, Trial 1 (Pyrenophora teres; 150 g ai/ha): B (51-75); Disease control of RAMUCC, percent control based on AUDPC (Ramularia collo-cygni; 75 g ai/ha): C (26-50); Disease control of RAMUCC, percent control based on AUDPC (Ramularia collo-cygni; 100 g ai/ha): C (26-50); Disease control of RAMUCC, percent control based on AUDPC (Ramularia collo-cygni; 150 g ai/ha): B (51-75)
